Consider 16 compounds from article PMC6993756, “Novel Anticancer Fused Pyrazole Derivatives as EGFR and VEGFR-2 Dual TK Inhibitors” (Frontiers in Chemistry, 2020).

Series [1] deals with HEPG2 human cancer cell line. Kind of series: MTT in vitro anticancer activity against HEPG2 cell line. It is filed as cell-based. As to conditions: for IC50: Homo sapiens, read-out: IC50 HEPG2; for fold higher activity than erlotinib, HEPG2: versus erlotinib (10.6 μM).
Method: The MTT method of monitoring in vitro cytotoxicity was used with multiwell plates. The stock concentration of the entire synthesized compounds in DMSO was 10 mM, and this was used to prepare the working dilution. The final DMSO concentration used in the experiments was ≤ 0.5% as the working concentration. Human liver cancer cell lines (HepG2) were cultured according to the manufacturer's instructions. […] The cell viability was determined in each experiment using MTT (3-(4, 5-dimethylthiazol-2-yl)-2, 5-diphenyltetrazolium bromide) colorimetric assay. The optical density was measured with a microplate reader at 540 nm. The experiment was conducted in triplicate. Data were calculated as percent of cell viability.
Another series deals with EGFR (Homo sapiens, UniProt P00533). Kind of series: EGFR kinase inhibitory assay (BPS Bioscience EGFR kinase assay kit).
For the next series, the target named is VEGFR-2 (Homo sapiens, UniProt P35968). Nature of the series: VEGFR-2 kinase inhibitory assay (HTScan VEGF Receptor 2 kinase assay kit).
Setting [2] is: HepG2, MTT, 24 h treatment, mean of three experiments.

Where two headings read alike, the source gives them in different places. A value given as a limit tells only on which side of the number the result lay.

EGFR, sequence (P00533 25-1210): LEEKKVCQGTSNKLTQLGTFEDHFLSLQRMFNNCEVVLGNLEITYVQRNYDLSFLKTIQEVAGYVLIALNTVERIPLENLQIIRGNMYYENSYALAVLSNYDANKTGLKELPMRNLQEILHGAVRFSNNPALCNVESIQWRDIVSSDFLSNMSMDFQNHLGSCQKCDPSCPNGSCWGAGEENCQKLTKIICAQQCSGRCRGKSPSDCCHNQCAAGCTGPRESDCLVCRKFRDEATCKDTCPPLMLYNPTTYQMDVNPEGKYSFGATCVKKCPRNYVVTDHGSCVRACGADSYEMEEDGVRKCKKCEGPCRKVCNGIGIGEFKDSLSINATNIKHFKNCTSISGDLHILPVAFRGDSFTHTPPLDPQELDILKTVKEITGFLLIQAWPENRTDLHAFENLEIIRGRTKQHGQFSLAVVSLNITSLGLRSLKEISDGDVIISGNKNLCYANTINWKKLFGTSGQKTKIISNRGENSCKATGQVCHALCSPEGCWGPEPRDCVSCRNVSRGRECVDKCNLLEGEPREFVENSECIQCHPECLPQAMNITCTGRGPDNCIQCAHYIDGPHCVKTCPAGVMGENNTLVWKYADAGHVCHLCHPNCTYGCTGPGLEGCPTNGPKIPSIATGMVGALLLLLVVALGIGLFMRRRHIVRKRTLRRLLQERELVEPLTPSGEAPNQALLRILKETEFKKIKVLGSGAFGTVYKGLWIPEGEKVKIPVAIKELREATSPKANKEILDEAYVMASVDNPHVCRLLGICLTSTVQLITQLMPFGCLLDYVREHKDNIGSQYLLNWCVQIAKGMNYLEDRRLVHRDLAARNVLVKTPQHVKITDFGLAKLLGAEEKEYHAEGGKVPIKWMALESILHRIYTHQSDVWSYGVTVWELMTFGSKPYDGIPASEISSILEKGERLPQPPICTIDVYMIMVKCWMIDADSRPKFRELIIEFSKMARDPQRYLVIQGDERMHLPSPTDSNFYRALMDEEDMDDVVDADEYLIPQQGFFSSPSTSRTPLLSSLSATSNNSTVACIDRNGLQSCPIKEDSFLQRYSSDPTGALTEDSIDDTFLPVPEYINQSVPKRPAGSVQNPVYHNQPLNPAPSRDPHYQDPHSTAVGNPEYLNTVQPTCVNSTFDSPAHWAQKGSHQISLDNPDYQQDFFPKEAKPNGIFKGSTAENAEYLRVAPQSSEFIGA
VEGFR-2, sequence (P35968 20-1356): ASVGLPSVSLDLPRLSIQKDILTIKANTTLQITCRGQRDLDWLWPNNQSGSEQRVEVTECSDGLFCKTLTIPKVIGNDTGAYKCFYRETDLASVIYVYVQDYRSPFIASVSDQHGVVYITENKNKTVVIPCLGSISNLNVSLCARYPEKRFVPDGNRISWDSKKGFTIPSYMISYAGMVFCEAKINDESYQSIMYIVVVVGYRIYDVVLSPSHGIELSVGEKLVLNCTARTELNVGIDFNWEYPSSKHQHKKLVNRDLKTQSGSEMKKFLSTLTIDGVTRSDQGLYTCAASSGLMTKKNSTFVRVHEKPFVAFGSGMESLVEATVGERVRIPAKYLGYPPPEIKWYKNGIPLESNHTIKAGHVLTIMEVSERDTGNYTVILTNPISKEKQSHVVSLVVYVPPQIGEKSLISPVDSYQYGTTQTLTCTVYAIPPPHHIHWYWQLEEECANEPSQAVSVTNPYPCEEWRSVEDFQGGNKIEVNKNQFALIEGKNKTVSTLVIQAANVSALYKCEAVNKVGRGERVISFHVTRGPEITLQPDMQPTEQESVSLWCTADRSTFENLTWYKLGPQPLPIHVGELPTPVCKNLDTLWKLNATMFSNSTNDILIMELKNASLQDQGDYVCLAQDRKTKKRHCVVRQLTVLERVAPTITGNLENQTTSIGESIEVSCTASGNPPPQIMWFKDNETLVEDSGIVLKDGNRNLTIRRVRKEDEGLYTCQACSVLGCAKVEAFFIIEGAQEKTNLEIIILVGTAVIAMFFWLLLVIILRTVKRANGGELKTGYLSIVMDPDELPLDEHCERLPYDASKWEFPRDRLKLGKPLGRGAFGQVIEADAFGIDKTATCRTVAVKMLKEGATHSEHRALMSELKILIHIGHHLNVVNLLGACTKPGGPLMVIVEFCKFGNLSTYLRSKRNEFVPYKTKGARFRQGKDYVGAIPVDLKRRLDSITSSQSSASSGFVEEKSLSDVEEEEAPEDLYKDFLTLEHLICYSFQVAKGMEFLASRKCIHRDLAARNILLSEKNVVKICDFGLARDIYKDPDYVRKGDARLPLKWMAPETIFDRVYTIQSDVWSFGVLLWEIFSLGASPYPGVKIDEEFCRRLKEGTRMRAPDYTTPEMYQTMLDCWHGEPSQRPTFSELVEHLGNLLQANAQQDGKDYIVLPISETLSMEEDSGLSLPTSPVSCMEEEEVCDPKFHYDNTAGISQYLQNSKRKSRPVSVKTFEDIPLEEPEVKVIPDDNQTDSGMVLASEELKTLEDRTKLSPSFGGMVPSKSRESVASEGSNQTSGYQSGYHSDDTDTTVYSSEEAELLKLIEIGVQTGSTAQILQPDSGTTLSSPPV

In the case of `Cc1n[nH]c2c1C(c1ccccc1Br)C(C#N)=C(N)O2` (centres unmarked) [Compound 1, 6-amino-4-(2-bromophenyl)-3-methyl-1,4-dihydropyrano[2,3-c]pyrazole-5-carbonitrile], the figures for the IC50 (in series [1] (setting [2]); against EGFR; at VEGFR-2) were 0.42 µM, 0.14 µM and 11.4 µM, respectively. In series [1], the “fold higher activity than erlotinib, HEPG2” value is reported as roughly 10 fold.
In turn, `CCOC=NC1=C(C#N)C(c2ccccc2Br)c2c(C)n[nH]c2O1` (centres unmarked) [Compound 2, Ethyl(E)-N-(4-(2-bromophenyl)-5-cyano-3-methyl-1,4-dihydropyrano[2,3-cpyrazol-6-yl)formimidate] showed a melting point of 158 to 160 °C. The IC50 in series [1] (setting [2]) is 0.35 µM. Moreover, the “fold higher activity than erlotinib, HEPG2” value in series [1] is listed as roughly 10 fold. The compound further displayed an IC50 against EGFR of 0.49 µM. On VEGFR-2, this compound returned an IC50 of 2.12 µM.
`Cc1n[nH]c2c1C(c1ccccc1Br)c1c(nc[nH]c1=O)O2` (centres unmarked) [Compound 5, 4-(2-Bromophenyl)-3-methyl-4,6-dihydropyrazolo [4′,3′:5,6]pyrano[2,3-d]pyrimidin-5(1H)-one] yielded a melting point of 205 °C. Moreover, the IC50 in series [1] (setting [2]) stood at 8.71 µM. In addition, half-maximal inhibition on EGFR (IC50) was put at 0.15 µM. Also, the IC50 on VEGFR-2 is 1.12 µM.
For `CC1=NNC2=NC(=S)NC(c3ccccc3Br)C12` (centres unmarked) [Compound 13, 4-(2-Bromophenyl)-3-methyl-1,3a,4,5-tetrahydro-6H-pyrazolo[3,4-d]pyrimidine-6-thione], the melting point came to 170 °C. Moreover, the IC50 in series [1] (setting [2]) was determined as 1.81 µM. In addition, on EGFR, the IC50 amounted to 0.12 µM. The same compound displayed an IC50 against VEGFR-2 of 0.75 µM.
In turn, `CC1=NNC2=NNC(c3ccccc3Br)C12` (centres unmarked) [Compound 14, 4-(2-Bromophenyl)-3-methyl-1,3a,4,5-tetrahydropyrazolo[3,4-c]pyrazole] yielded a melting point of 140 °C. The IC50 in series [1] (setting [2]) was 6.64 µM. The same compound gave an IC50 at EGFR of 0.11 µM. This compound also came in with an IC50 on VEGFR-2 of 2.87 µM.
On to `CC1=NNC2=NC(=O)NC(c3ccccc3Br)C12` (centres unmarked) [Compound 12, 4-(2-bromophenyl)-3-methyl-1,3a, 4,5-tetrahydro-6h-pyrazolo [3,4-d]pyrimidin-6-one], for which the melting point came out at 205 °C. Moreover, the concentration for half-maximal inhibition (IC50) in series [1] (setting [2]) amounted to 0.71 µM. In addition, the “fold higher activity than erlotinib, HEPG2” value in series [1] is roughly 10 fold. This compound also came in with an IC50 on EGFR of 0.09 µM. Moreover, inhibition at VEGFR-2 was half-maximal at 0.23 µM (IC50).
As for `CNC(=O)c1cc(Oc2ccc(NC(=O)Nc3ccc(Cl)c(C(F)(F)F)c3)cc2)ccn1` [Sorafenib, sorafenib, reference compound], the IC50 in series [1] (setting [2]) came to 1.06 µM.
With `Cc1n[nH]c2c1C(c1ccccc1Br)C(C#N)=C(NC(=S)Nc1ccccc1)O2` (centres unmarked) [Compound 8, 1-(4-(2-Bromophenyl)-5-cyano-3-methyl-1,4-dihydropyrano[2,3-c]pyrazol-6-yl)-3-phenylthiourea], the results for the IC50 (in series [1] (setting [2]); against EGFR; against VEGFR-2) were 0.38 µM, 0.23 µM and 0.46 µM, respectively.
As to `Cc1n[nH]c2c1C(c1ccccc1Br)C(C#N)=C(NC(=O)CC#N)O2` (centres unmarked) [Compound 7, N-(4-(2-Bromophenyl)-5-cyano-3-methyl-1,4-dihydropyrano[2,3-c]pyrazol-6-yl)-2-cyanoacetamide], the melting point is greater than 360 °C. Further, in series [1] (setting [2]), the IC50 stood at 1.84 µM. On EGFR, this compound showed an IC50 of 0.25 µM. The same compound showed an IC50 against VEGFR-2 of 1.45 µM.
As for `CC1=NNC(=O)/C1=C/c1ccccc1Br` [Compound 11, (E)-4-(2-Bromobenzylidene)-5-methyl-2,4-dihydro-3H-pyrazol-3-one], the melting point was 210 °C. Also, the IC50 in series [1] (setting [2]) was 0.63 µM. Further, in series [1], the “fold higher activity than erlotinib, HEPG2” value is listed as roughly 10 fold. The compound also yielded an IC50 on EGFR of 0.3 µM. In addition, it took 0.27 µM to reach half-maximal inhibition against VEGFR-2 (IC50).
The matching figures for `Cc1n[nH]c2oc(=O)c(C#N)c(-c3ccccc3Br)c12` [Compound 15, 4-(2-Bromophenyl)-3-methyl-6-oxo-1,6-dihydropyrano[2,3-c]pyrazole-5-carbonitrile]: greater than 360 °C, 0.37 µM, roughly 10 fold, 0.19 µM and 0.37 µM.
`Cc1n[nH]c2c1C(c1ccccc1Br)c1c(N)ncnc1O2` (centres unmarked) [Compound 6, 4-(2-Bromophenyl)-3-methyl-1,4-dihydropyrazolo[4′,3′:5,6]pyrano[2,3-d]pyrimidin-5-amine] gave a melting point of 320 °C. Further, in series [1] (setting [2]), the IC50 turned out to be 15.7 µM. The midpoint of inhibition against EGFR, the IC50, lay at 0.25 µM. The same compound showed an IC50 at VEGFR-2 of 1.1 µM.
`Cc1nc2c(c(=O)[nH]1)C(c1ccccc1Br)c1c(C)n[nH]c1O2` (centres unmarked) [Compound 4, 4-(2-Bromophenyl)-3,7-dimethyl-4,6-dihydropyrazolo[4′,3′:5,6]pyrano[2,3-d]pyrimidin-5(1H)-one] showed a melting point of 115 °C. For the same compound, the IC50 in series [1] (setting [2]) was 0.31 µM. In addition, in series [1], the “fold higher activity than erlotinib, HEPG2” value was roughly 10 fold. This compound also had an IC50 at EGFR of 0.13 µM. On VEGFR-2, this compound had an IC50 of 0.36 µM.
The compound `Cc1ccc(S(=O)(=O)NC2=C(C#N)C(c3ccccc3Br)c3c(C)n[nH]c3O2)cc1` (centres unmarked) [Compound 9, N-(4-(2-Bromophenyl)-5-cyano-3-methyl-1,4-dihydropyrano[2,3-c]pyrazol-6-yl)-4-methyl-benzenesulfonamide] yielded a melting point of 193 to 195 °C. Also, in series [1] (setting [2]), the IC50 came to 2.3 µM. In addition, the IC50 against EGFR came out at 0.16 µM. The IC50 against VEGFR-2 is 0.22 µM.
The matching figures for `Cc1n[nH]c2c1C(c1ccccc1Br)c1c(ncn(N)c1=N)O2` (centres unmarked) [Compound 3, 4-(2-Bromophenyl)-5-imino-3-methyl-1,4-dihydropyrazolo[4′,3′:5,6]pyrano[2,3-d]pyrimidin-6(5H)-amine]: 120 to 122 °C, 4.07 µM, 0.06 µM and 0.85 µM.
As to `C#Cc1cccc(Nc2ncnc3cc(OCCOC)c(OCCOC)cc23)c1` [Erlotinib, erlotinib, reference compound], in series [1] (HepG2, 24 h), the IC50 was 10.6 µM.

By IC50 is commonly meant the concentration at which inhibition is half-maximal. As usually defined, the melting point is the temperature, or range, at which the solid turns liquid.
